Assay results published in US12421232B2, “Kinase inhibitor compounds and compositions and methods of use” (ICAHN SCHOOL OF MEDICINE AT MOUNT SINAI, priority 2018, dated 2025).
Like-named read-outs stand apart in the source and are kept apart here.

How the values were obtained:
Assay in all cases: KINOMEscan Assay (DiscoverX)
Assay type in all cases: binding
Conditions in all cases: read-out: % DMSO Ctrl
[1] = biological target: T1, CDK7 (Homo sapiens, UniProt P50613)
T1 construct: purchased DiscoverX

[2] = biological target: T2, DYRK1B (Homo sapiens, UniProt Q9Y463)
T2 construct: purchased DiscoverX

[3] = biological target: T3, FLT3(D835V) (Homo sapiens, UniProt P36888, D835V)
T3 construct: purchased DiscoverX
T3 sequence (P36888 27-993 D835V): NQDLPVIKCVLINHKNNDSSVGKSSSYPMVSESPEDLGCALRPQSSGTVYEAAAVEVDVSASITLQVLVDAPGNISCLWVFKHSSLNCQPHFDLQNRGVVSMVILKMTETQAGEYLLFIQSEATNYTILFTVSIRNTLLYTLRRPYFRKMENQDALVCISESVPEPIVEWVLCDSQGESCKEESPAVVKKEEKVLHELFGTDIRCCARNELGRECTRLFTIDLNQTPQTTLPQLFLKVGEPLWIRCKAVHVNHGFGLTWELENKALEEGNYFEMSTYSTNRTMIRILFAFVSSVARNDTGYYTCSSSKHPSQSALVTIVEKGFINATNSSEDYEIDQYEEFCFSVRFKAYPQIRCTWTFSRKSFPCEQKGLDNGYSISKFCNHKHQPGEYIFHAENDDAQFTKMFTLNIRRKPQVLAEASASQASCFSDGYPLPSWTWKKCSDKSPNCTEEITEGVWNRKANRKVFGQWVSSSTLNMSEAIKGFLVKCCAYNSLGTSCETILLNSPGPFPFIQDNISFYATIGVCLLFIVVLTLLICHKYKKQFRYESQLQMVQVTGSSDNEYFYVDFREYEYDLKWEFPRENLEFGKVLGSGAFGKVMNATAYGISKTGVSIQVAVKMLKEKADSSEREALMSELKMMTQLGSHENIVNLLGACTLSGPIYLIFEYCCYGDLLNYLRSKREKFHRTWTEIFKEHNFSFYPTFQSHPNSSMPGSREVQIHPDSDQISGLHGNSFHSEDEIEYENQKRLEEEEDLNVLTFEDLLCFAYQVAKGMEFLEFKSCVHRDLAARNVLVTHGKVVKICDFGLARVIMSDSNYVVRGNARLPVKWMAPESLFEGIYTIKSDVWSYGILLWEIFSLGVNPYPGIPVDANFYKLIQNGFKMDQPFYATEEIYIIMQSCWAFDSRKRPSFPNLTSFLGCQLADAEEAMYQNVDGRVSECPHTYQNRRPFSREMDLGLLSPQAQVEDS

[4] = biological target: T4, PIM1 (Homo sapiens, UniProt P11309)
T4 construct: purchased DiscoverX

[5] = biological target: T5, ADCK4 (Homo sapiens, UniProt Q96D53)
T5 construct: purchased DiscoverX
T5 sequence (Q96D53 1-544): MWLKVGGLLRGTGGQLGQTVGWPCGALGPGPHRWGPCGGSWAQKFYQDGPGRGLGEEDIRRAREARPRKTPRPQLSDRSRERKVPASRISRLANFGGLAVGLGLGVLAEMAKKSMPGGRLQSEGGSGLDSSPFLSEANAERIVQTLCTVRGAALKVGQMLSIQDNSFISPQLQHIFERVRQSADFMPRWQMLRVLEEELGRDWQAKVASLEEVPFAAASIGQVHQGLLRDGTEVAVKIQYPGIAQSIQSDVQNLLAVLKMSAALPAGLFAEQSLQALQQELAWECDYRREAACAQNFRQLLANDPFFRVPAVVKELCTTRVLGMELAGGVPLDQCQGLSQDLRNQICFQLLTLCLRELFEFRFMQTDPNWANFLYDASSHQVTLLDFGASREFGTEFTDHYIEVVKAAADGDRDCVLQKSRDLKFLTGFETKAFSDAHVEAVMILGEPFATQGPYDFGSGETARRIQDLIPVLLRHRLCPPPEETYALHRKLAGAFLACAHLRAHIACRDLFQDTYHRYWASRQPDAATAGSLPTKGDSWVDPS

[6] = biological target: T6, CAMK2A (Homo sapiens, UniProt Q9UQM7)
T6 construct: purchased DiscoverX

[7] = biological target: T7, KIT(V559D) (Homo sapiens, UniProt P10721, V559D)
T7 construct: purchased DiscoverX

[8] = biological target: T8, RPS6KA4(Kin.Dom.2-C-terminal) (Homo sapiens, UniProt O75676)
T8 construct: Kin.Dom.2; purchased DiscoverX

[9] = biological target: T9, TAOK3 (Homo sapiens, UniProt Q9H2K8)
T9 construct: purchased DiscoverX
T9 sequence (Q9H2K8 1-898): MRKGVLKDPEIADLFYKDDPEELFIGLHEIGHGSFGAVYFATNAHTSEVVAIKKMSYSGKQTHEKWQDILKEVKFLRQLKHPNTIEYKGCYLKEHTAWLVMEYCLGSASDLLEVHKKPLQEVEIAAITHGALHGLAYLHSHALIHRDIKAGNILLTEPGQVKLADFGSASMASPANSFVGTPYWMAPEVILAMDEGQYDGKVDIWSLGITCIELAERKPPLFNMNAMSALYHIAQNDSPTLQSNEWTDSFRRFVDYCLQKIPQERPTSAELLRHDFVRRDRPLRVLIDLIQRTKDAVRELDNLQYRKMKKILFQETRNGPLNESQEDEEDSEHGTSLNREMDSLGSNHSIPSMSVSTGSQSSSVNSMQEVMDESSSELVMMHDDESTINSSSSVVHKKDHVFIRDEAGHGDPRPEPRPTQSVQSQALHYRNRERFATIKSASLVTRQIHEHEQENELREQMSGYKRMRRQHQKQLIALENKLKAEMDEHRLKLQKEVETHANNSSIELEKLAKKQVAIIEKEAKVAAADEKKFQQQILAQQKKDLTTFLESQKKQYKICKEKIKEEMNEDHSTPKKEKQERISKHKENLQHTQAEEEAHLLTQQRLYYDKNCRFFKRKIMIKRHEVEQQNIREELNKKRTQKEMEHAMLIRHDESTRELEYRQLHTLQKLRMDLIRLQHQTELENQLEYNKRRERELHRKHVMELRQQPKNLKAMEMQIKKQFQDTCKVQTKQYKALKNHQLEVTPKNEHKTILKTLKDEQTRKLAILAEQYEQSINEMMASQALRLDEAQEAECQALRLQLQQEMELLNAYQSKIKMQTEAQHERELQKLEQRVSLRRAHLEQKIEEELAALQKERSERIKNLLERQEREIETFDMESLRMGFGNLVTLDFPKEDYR

T6 sequence (Q9UQM7 whole entry): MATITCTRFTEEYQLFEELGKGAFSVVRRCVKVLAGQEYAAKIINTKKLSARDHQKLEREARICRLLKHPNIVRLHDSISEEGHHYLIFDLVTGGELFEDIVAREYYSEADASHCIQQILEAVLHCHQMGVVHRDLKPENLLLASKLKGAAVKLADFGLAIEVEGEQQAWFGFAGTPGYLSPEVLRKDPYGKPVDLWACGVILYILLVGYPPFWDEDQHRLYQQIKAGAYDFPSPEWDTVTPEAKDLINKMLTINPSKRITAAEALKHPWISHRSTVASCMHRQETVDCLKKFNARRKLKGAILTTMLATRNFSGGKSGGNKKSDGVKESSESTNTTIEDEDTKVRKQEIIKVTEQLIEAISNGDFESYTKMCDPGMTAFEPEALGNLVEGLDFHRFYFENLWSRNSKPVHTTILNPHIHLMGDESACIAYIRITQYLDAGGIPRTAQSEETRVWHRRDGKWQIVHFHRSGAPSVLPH
T4 sequence (P11309 whole entry): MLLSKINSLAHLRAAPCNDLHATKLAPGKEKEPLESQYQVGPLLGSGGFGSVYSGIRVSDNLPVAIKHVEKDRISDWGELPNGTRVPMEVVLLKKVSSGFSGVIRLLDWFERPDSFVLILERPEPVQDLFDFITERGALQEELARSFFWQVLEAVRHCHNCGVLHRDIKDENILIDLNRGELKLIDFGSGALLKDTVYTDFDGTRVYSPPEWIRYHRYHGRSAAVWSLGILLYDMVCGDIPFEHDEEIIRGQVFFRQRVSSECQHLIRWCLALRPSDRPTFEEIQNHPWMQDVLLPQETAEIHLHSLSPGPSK
T8 sequence (O75676 411-674 limits assumed): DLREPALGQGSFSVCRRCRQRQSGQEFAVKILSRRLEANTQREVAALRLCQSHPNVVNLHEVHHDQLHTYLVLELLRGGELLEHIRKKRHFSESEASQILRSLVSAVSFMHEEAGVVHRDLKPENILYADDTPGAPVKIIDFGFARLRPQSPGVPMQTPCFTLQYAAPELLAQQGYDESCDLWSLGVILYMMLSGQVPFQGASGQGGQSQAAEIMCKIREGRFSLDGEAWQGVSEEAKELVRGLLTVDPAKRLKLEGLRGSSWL
T1 sequence (P50613 whole entry): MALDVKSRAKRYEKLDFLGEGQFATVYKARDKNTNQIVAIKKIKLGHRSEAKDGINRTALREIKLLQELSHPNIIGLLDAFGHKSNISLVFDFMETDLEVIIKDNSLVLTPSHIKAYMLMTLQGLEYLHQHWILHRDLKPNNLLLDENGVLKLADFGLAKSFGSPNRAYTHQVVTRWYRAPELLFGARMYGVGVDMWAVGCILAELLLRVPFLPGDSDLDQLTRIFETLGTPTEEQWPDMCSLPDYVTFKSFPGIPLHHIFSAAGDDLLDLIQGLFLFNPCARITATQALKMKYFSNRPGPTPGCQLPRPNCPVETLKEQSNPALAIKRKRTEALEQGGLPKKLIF
T7 sequence (P10721 26-976 V559D): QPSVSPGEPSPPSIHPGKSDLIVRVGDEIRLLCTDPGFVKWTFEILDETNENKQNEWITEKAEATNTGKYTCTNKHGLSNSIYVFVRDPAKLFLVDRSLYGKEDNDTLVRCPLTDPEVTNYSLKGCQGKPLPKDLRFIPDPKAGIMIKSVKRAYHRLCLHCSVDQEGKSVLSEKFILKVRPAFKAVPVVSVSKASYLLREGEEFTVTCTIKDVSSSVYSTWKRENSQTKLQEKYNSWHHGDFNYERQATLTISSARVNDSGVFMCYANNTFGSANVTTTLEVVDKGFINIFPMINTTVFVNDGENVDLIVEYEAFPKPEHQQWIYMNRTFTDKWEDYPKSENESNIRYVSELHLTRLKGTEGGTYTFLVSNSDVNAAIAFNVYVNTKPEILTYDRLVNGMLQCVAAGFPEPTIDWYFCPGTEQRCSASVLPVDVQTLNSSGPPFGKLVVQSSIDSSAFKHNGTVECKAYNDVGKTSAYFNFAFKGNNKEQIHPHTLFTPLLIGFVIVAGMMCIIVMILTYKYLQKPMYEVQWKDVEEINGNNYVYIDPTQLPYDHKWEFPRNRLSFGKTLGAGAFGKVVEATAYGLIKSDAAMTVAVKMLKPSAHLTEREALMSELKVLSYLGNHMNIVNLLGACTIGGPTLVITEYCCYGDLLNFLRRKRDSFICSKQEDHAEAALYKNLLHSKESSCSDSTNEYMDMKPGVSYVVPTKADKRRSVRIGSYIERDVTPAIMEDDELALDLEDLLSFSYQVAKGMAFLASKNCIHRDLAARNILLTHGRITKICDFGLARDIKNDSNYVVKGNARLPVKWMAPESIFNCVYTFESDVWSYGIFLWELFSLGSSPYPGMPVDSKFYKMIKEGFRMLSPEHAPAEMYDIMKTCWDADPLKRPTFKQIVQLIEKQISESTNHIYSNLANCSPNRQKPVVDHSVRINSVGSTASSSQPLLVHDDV
T2 sequence (Q9Y463 whole entry): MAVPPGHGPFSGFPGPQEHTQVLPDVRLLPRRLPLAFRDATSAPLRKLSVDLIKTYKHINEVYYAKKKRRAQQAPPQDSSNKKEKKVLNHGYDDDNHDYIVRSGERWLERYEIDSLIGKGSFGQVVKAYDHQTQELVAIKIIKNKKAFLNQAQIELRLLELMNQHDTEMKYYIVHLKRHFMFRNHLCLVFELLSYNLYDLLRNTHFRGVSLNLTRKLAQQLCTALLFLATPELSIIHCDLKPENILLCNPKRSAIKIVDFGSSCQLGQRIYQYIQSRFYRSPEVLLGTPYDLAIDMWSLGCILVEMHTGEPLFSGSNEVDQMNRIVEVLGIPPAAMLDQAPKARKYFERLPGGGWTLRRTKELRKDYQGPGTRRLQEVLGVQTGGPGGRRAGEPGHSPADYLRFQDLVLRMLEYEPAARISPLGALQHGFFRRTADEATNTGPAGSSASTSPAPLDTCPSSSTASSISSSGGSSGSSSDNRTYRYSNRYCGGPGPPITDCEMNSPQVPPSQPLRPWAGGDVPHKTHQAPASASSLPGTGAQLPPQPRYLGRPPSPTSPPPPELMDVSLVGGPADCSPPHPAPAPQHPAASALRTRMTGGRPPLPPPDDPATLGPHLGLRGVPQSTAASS

COc1ccc2c(c1)[nH]c1c(C)nccc12 [Harmine, reference compound]
remaining binding at 10 µM [1]: 21% | remaining binding at 10 µM [2]: 6.1% | remaining binding at 10 µM [3]: 25% | remaining binding at 10 µM [4]: 45%

C#CCn1c2cc(OC)ccc2c2ccnc(C)c21 [Compound 20-23a, 3-(7-Methoxy-1-methyl-β-carbolin-9-yl)-propan-1-yne]
remaining binding at 10 µM [5]: 9.3% | remaining binding at 10 µM [6]: 13% | remaining binding at 10 µM ([1]; CDK7, 10 μM): 0.8% | remaining binding at 10 µM ([2]; DYRK1B, 10 μM): 1.1% | remaining binding at 10 µM ([3]; FLT3(D835V) mutant, 10 μM): 2.5% | remaining binding at 10 µM [7]: 90% | remaining binding at 10 µM ([4]; PIM1, 10 μM): 26% | remaining binding at 10 µM [8]: 55% | remaining binding at 10 µM [9]: 93%

COc1ccc2c3ccnc(C)c3n(CCCc3noc(N)n3)c2c1 [Compound 20-13, 3-(3-(7-Methoxy-1-methyl-β-carbolin-9-yl)propyl)-5-amino-1,2,4-oxadiazole]
remaining binding at 10 µM [5]: 100% | remaining binding at 10 µM [6]: 72% | remaining binding at 10 µM [1]: 51% | remaining binding at 10 µM [2]: 1% | remaining binding at 10 µM [3]: 2.6% | remaining binding at 10 µM [7]: 100% | remaining binding at 10 µM [4]: 28% | remaining binding at 10 µM [8]: 85% | remaining binding at 10 µM [9]: 77%

COc1ccc2c(c1)[nH]c1c(C)nc(CO)cc12 [Compound 2-8, (1-Methyl-7-methoxy-9H-pyrido[3,4-b]indol-3-yl)methanol]
remaining binding at 10 µM ([5]; ADCK4, 10 μM): 84% | remaining binding at 10 µM ([6]; CAMK2A, 10 μM): 53% | remaining binding at 10 µM ([3]; FLT3(D835V) mutant, 10 μM): 42% | remaining binding at 10 µM ([7]; KIT(V559D) mutant, 10 μM): 82% | remaining binding at 10 µM ([8]; RPS6KA4(Kin.Dom.2-C-terminal), 10 μM): 1% | remaining binding at 10 µM ([9]; TAOK3, 10 μM): 70%
